In patent US6521593B1, “Methods for inhibiting brain tumor growth” (Childrens Hospital Los Angeles, priority 1999, dated 2003):

Experiments:
U87MG cells [1] = test: Heterotopic (subcutaneous) tumor model, U87MG cells in nude mice
primary HBEC = test: Apoptosis on vitronectin (Annexin V-FITC FACS), HBEC; format: cell-based, human; conditions: 20 μg/ml, 4 hrs
Method: Apoptosis: Adhesion conditions were as above, except that 12 well plates covered with vitronectin and 5×10^5 cells/well were plated in adhesion buffer. […] Attached cells were trypsinized and combined with the detached cells in the supernatant and then examined for the presence of apoptotic cells using the Apo Alert Annexin V-FITC apoptosis kit (Clontech).
FIGS. 6a-6d show the integrin profile (a), effect of αv-antagonist on adhesion to (b), migration on (c) and cell viability on vitronectin (d) for brain tumor and brain capillary endothelial cells. Both DAOY and U87MG tumor cells and brain capillary cells express the integrins αvβ3 and αvβ5 (a). […] Cell viability was tested by letting the cells attach to vitronectin for 1 hour, and then exposing them for 4 hours to the control peptide or αv-antagonist (20 μg/ml) (d). Adherent and floating cells were combined and examined by FACS for apoptosis, using FITC labeled anti-annexin V and propidium iodide.
We have previously shown that pre-incubation of brain tumor or capillary cells with the cRGD peptide, or the combination of anti-αvβ3 and anti-αvβ5 antibodies, prevents cell adhesion to vitronectin. […] Attached cells were combined after trypsinization with floating cells and the number of apoptotic cells was determined by FACS, using anti-annexin V-FITC antibody and propidium iodide (Clontech Apo alert Annexin V-FITC detection apoptosis kit).

U87MG cells [2] = test: Vitronectin adhesion, U87MG; format: cell-based, human; conditions: test substance 20 μg/ml
Method: (§1) Adhesion: Assay conditions were as previously described (15). Non-tissue culture treated wells incubated overnight at 4° C. with vitronectin (1-10 μg/ml PBS), washed and blocked for 30 min. with heat denatured 1% BSA in PBS, followed by washing with PBS. Control and test cells, pre-incubated at 37° C. with the test substance (20 μg/ml) in adhesion buffer for 30 min. were plated into wells (5×10^4 cells/well) and incubated for 1 hr at 37° C. After gentle washing of the wells with adhesion buffer, adhering cells were fixed and stained with crystal violet, the dye solubilized in methanol and the OD determined at […].
(§2) To determine if αvβ3 and αvβ5 regulate DAOY, U87MG and HBEC adhesion to vitronecin, the cells were plated in vitronectin-coated wells and allowed to adhere in the presence or absence of either blocking antibodies to αvβ3 (LM-609) and αvβ5 (P1-F6) or the cRGD peptide.

DAOY cells [3] = test: Heterotopic (subcutaneous) tumor model, DAOY cells in nude mice
Method: Subcutaneous tumor growth: For subcutaneous tumor growth, the cells (10^6 mouse) were injected s.c. below the right shoulder pad immediately following intracerebral injection.
To further investigate this finding, we simultaneously injected the DAOY and U87MG cells intracranially and subcutaneously before initiating treatment with the peptides as outlined under the orthotopic model.

[4] = system: DAOY medulloblastoma cells; test: Tumor cell adhesion to ECM proteins (FIG. 7), DAOY; format: cell-based, human; conditions: DAOY on vitronectin and tenascin, 20 μg/ml, 8-hour incubation
Method: (§3) Non tissue culture dishes were incubated 1 hour at 37° C. with vitronectin, tenascin, fibronectin or collagen I (10 μg/ml), then washed with PBS. After the wash, 5×10^5 cells /well were plated and incubated for 16 hours at 37° C. The cultures were then washed and an adhesion buffer containing 20 μg/ml of pentapeptide or control peptide were added and incubated for an additional 2-24 hours. The cultures were then washed twice with adhesion buffer and stained with Crystal violet and the OD 600 determined. The more adherent cells are present, the higher the OD. Data represent adherent cells after 8-hour incubation. U87=glioblastoma and DAOY=medulloblastoma.

U87MG cells [5] = test: Orthotopic brain tumor model, U87MG cells injected intracerebrally in nu/nu mice
Method: Tumor cells (10^6/10 μl PBS) were injected intracerebrally at the coordinates mentioned. […] The animals were then sacrificed by CO2 anesthesia, the brains removed and either snap frozen in liquid nitrogen or fixed in buffered formalin, embedded in paraffin and the cut sections stained with Hematoxylin-Eosin.
DAOY and U87MG cells (10^6 cells/mouse) were stereotactically injected into the right frontal cortex of nu/nu mice in order to establish a system that recapitulates the brain microenvironment.
Additional animals were tested for survival. Survival was measured as the time point in which mice required sacrifice, due to a moribund state. […] N for DAOY and U87MG control is 16 mice each and 32 mice for treated DAOY and 24 for treated U87MG.
Tumors were removed after 2 weeks of treatment, fixed in buffered formalin, embedded in paraffin and 5 μm sections obtained.

[6] = system: DAOY medulloblastoma cells; test: Apoptosis of cells grown on ECM (FIG. 8), DAOY; format: cell-based, human; conditions: 20 μg/ml, 24 hours
Method: as §3
Test conditions were as in FIG. 7, except that detached cells and adherent cells were combined after trypsinisation. The cells were then washed, suspended in 50 μl PBS and centrifuged in glass cover slides (cytospin). After fixation with 4% paraformaldehyde, the cells were stained for apoptosis using the Boehringer Apoptosis Kit. Results are expressed in a percentage of apoptotic cells versus total number of cells. Experiment was done after 24 hours of incubation with the peptides.

[7] = system: M21L αv neg melanoma cells; test: Survival of nude mice with αv-negative melanoma cells implanted into the brain; format: in vivo; conditions: 10^6 cells into forebrain of nude mice
Source text: (§4) Mice were sacrificed when becoming cachectic and the presence of tumor was verified by autopsy.

[8] = system: M21L αv pos melanoma cells; test: Survival of nude mice with αv-positive melanoma cells implanted into the brain; format: in vivo; conditions: 10^6 cells into forebrain of nude mice
Source text: as §4

DAOY cells [9] = test: Vitronectin adhesion, DAOY; format: cell-based, human; conditions: test substance 20 μg/ml
Method: as §1, §2

[10] = system: human brain endothelial cells (HBEC); test: Vitronectin adhesion, HBEC; format: cell-based; conditions: test substance 20 μg/ml
Method: as §1, §2

U87MG cells [11] = test: Vitronectin migration (Boyden chamber), U87MG; format: cell-based, human; conditions: test substance 20 μg/ml, 4 hrs
Method: Migration: Transwell polycarbonate filters (8 μm pore size) were incubated for 30 min. at 37° C. with vitronectin in PBS (1 μg/ml on the upper side and 10 μg on the bottom side), blocked for 30 min. with 1% heat denatured BSA and washed with PBS. Test cells (5×10^5/well) were added in adhesion buffer containing the test substances indicated (20 μg/ml) and incubated for 4 hrs at 37° C. with the lower chamber containing adhesion buffer. Cells in the upper chamber were removed with a cotton swab and cells on the bottom part of the filter were fixed and stained with crystal violet and the number of migrated cells determined by counting.
To address whether αvβ3 and αvβ5 modulate migration on vitronectin, independent of adhestion, we tested the same cells on vitronectin-coated membranes in Boyden chambers while in the presence of blocking antibodies or cRGD. […] Since LM-609, in the absence of P1-F6, was incapable of blocking adhesion, this anti-migratory effect must be mediated through a distinct pathway which is independent of forces responsible for adhesion.

[12] = 100 μg/mouse/day from day 3, listed as active pentapeptide

Question: What does the source list for `CC(C)[C@H]1C(=O)N[C@@H](CCCN=C(N)N)C(=O)NCC(=O)N[C@@H](CC(=O)O)C(=O)N[C@H](Cc2ccccc2)C(=O)N1C` [EMD 121974, cyclo(Arg-Gly-Asp-D-Phe-[N-Me]-Val)]?
Answer: time to sacrifice necessitated by progressive growth of subcutaneous tumors (U87MG cells [1]; U87MG injected intracranially and subcutaneously): 10 weeks; inhibition of subcutaneous tumor growth (U87MG cells [1]; U87MG s.c. only, 100 μg/mouse daily i.p. from day 3, after 6 weeks): no inhibition of tumor growth; Tumor size (mm) Subcutis (U87MG cells [1]; U87MG s.c., 100 μg/mouse daily i.p.): 19 ± 0.77 mm; apoptosis after attachment to vitronectin (primary HBEC): significant apoptosis; adhesion to vitronectin (U87MG cells [2]): Significant inhibition; average size of subcutaneous tumors (DAOY cells [3]; DAOY injected into brain and subcutis, treatment from day 7, week 4 (FIG. 5)): 18 mm^3; time to sacrifice necessitated by progressive growth of subcutaneous tumors (DAOY cells [3]; DAOY injected intracranially and subcutaneously): 10 weeks; inhibition of subcutaneous tumor growth (DAOY cells [3]; DAOY s.c. only, 100 μg/mouse daily i.p. from day 7, after 6 weeks): no inhibition of tumor growth; Tumor size (mm) Subcutis (DAOY cells [3]; DAOY s.c., 100 μg/mouse daily i.p.): 17 ± 0.84 mm; adhesion to ECM (adherent cells, OD 600) [4]: detached from vitronectin and tenascin; Mouse weight (gr) (U87MG cells [5]; U87MG, 100 μg/mouse daily i.p.): 20 ± 0.71 gr; mean time to the onset of neurologic symptoms (U87MG cells [5]; U87MG, 100 μg/mouse daily i.p.): no evidence of neurological symptoms at any time; mouse weight (U87MG cells [5]; U87MG, 100 μg/mouse daily i.p., baseline 21 g): 21 g; survival (time point at which mice required sacrifice, moribund state) (U87MG cells [5]; U87MG, i.p. 100 μg/mouse/day from day 3): ≥ 15 weeks; Tumor size (mm) Brain (U87MG cells [5]; U87MG, nu/nu mice, 100 μg/mouse daily i.p. from day 3, 4 weeks total tumor growth, listed as αv-antagonist): no tumor or only scant residual tumor cells; size of residual tumor foci (U87MG cells [5]; U87MG, treated group): smaller than 1 mm^3; CD31 positive vessels in tumor sections (immunohistochemistry) (U87MG cells [5]; U87 brain tumors, 100 μg/mouse/day from day 7, 2 weeks of treatment, p<0.005): very few such vessels; apoptotic (dead) cells in tumor sections (U87MG cells [5]; U87 brain tumors, 100 μg/mouse/day from day 7, 2 weeks of treatment, p<0.02): significantly more dead cells; cell survival / apoptotic cells ([6]; DAOY grown on collagen I or fibronectin): did not alter the survival; cell survival / apoptotic cells ([6]; DAOY grown on vitronectin or tenascin): increased number of dead cells; Survival ([7]; 100 μg/mouse/day from day 3): 15.7 ± 3.8 days; Survival [7, 12]: 15 days; Survival ([8]; 100 μg/mouse/day from day 3): 36.5 ± 2.9 days; Survival [8, 12]: 36 days; adhesion to vitronectin (DAOY cells [9]): Significant inhibition; adhesion to vitronectin [10]: Significant inhibition; migration on vitronectin (U87MG cells [11]): significantly inhibited
